Source: patent publication US20260356830A1, “COMPOUNDS FOR MODULATING RET PROTEIN” (Bristol-Myers Squibb Company, priority 2022, published 2026)

Target: T1, CCDC6-RET (Homo sapiens, UniProt P07949+Q16204+Q96SW2)
T1 construct: CCDC6 (natural N-terminal fusion partner, UniProt Q16204); endogenous in cells; host or cells: TPC-1 (parental, papillary thyroid carcinoma)
Test: Cellular RET degradation, AlphaLISA, TPC-1 cell line
Assay type: cell-based
Conditions: for Dmax: TPC1, human, 24 h, read-out: Cell Density TPC-1/CCDC6-RET Ymax %; for DC50: read-out: Cell Density TPC-1/CCDC6-RET DC50, half-maximal degradation concentration, TPC-1 (CCDC6-RET), 24 hrs
Procedure, shortened: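 TPC-1 papillary thyroid carcinoma cells (endogenous CCDC6-RET) in DMEM with 2% FBS, compound-treated 24 h at 37 °C. RET in lysates quantified by AlphaLISA luminescence, normalized to media-only and DMSO wells; DC50 and maximal degradation from 4-parameter logistic fit.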

T1 sequence (Q16204+P07949 fused): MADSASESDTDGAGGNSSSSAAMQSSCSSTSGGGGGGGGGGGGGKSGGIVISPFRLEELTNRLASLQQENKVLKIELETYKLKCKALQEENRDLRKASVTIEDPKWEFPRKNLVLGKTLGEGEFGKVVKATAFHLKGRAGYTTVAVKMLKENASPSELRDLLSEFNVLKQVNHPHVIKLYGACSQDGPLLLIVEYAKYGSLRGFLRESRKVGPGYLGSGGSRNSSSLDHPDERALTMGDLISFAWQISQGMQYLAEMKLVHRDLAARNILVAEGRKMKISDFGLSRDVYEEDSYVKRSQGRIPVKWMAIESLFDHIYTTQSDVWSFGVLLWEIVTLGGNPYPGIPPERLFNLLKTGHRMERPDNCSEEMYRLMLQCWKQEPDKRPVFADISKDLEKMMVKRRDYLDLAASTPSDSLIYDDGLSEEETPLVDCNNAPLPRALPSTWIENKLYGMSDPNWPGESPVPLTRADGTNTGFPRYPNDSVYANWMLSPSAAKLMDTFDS
T1 sequence (Q96SW2 whole entry, the tested form may be a part): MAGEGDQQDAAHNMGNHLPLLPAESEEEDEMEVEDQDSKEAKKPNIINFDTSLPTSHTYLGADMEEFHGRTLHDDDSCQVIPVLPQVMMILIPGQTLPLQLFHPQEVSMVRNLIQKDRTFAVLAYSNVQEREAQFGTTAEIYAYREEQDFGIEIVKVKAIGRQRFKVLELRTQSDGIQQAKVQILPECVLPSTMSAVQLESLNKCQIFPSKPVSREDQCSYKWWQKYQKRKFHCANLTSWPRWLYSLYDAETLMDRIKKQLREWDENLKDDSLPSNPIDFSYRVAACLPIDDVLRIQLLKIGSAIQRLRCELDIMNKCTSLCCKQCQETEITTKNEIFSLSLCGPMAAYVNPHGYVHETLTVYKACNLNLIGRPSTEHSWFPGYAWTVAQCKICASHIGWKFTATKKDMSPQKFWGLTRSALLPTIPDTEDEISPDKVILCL
T1 sequence (Q16531 whole entry partner, the tested form may be a part): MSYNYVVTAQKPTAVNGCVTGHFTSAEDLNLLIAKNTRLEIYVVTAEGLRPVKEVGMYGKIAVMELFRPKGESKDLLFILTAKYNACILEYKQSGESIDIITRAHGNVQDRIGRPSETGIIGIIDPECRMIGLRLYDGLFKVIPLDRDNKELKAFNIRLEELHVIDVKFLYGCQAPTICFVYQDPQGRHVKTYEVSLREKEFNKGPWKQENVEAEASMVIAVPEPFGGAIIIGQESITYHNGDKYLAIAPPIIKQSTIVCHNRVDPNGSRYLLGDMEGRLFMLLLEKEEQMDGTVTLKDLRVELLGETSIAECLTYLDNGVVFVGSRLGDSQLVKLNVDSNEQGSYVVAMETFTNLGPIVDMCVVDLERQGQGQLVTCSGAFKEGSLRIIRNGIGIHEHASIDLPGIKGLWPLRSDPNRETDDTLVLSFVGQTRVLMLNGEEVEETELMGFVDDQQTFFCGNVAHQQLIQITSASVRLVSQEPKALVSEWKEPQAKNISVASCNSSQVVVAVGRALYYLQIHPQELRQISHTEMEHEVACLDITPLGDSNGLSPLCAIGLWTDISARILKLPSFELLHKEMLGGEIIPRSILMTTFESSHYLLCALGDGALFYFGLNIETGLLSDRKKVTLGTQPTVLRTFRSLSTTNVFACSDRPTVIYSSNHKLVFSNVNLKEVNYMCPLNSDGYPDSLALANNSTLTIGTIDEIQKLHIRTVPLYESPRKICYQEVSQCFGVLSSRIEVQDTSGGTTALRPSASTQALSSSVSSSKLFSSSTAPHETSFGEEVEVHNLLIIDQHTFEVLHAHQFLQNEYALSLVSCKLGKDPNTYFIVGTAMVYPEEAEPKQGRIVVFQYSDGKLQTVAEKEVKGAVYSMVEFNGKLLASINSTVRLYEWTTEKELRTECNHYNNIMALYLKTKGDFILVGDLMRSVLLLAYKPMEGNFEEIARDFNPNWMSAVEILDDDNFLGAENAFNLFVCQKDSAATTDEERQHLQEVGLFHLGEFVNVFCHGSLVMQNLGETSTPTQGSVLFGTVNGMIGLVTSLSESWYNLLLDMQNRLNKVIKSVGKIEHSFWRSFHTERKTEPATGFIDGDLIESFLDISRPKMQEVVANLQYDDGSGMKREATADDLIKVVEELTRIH

Row | SMILES | Dmax | DC50
1 | CCOc1cc(-c2ccc(N3CCC(NC(=O)c4cc(F)ccc4F)(C(=O)NCCCCN4CCC(c5ccc6c(c5)C(=O)N(C5CCC(=O)NC5=O)C6)CC4)CC3)nc2)c2c(C#N)cnn2c1 (stereo not shown) [Example 162, 1-(5-{3-cyano-6-ethoxypyrazolo[1,5-a]pyridin-4-yl}pyridin-2-yl)-4-(2,5-difluorobenzamido)-N-(4-{4-[2-(2,6-dioxopiperidin-3-yl)-3-oxo-2,3-dihydro-1H-isoindol-5-yl]piperidin-1-yl}butyl)piperidine-4-carboxamide] | 60 to 90% | 10 to 100 nM
2 | CCOc1cc(-c2ccc(N3CCC(CN(C(=O)CCN4CCN(c5ccc6c(c5)C(=O)N(C5CCC(=O)NC5=O)C6)CC4)C(C)C)(NC(=O)c4cc(F)ccc4F)CC3)nc2)c2c(C#N)cnn2c1 (stereo not shown) [Example 167, N-[1-(5-{3-cyano-6-ethoxypyrazolo[1,5-a]pyridin-4-yl}pyridin-2-yl)-4-[(3-{4-[2-(2,6-dioxopiperidin-3-yl)-3-oxo-2,3-dihydro-1H-isoindol-5-yl]piperazin-1-yl}-N-(propan-2-yl)propanamido)methyl]piperidin-4-yl]-2,5-difluorobenzamide] | 60 to 90% | 2 to 10 nM
3 | CCOc1cc(-c2ccc(N3CCC(CN(C(=O)CCCCN4CCN(c5ccc6c(c5)C(=O)N(C5CCC(=O)NC5=O)C6)CC4)C(C)C)(NC(=O)c4cc(F)ccc4F)CC3)nc2)c2c(C#N)cnn2c1 (stereo not shown) [Example 168, N-[1-(5-{3-cyano-6-ethoxypyrazolo[1,5-a]pyridin-4-yl}pyridin-2-yl)-4-[(5-{4-[2-(2,6-dioxopiperidin-3-yl)-3-oxo-2,3-dihydro-1H-isoindol-5-yl]piperazin-1-yl}-N-(propan-2-yl)pentanamido)methyl]piperidin-4-yl]-2,5-difluorobenzamide] | > 90% | 2 to 10 nM
4 | CCOc1cc(-c2ccc(N3CCC(CN(C(=O)CCCCCCN4CCN(c5ccc6c(c5)C(=O)N(C5CCC(=O)NC5=O)C6)CC4)C(C)C)(NC(=O)c4cc(F)ccc4F)CC3)nc2)c2c(C#N)cnn2c1 (stereo not shown) [Example 169, N-[1-(5-{3-cyano-6-ethoxypyrazolo[1,5-a]pyridin-4-yl}pyridin-2-yl)-4-[(7-{4-[2-(2,6-dioxopiperidin-3-yl)-3-oxo-2,3-dihydro-1H-isoindol-5-yl]piperazin-1-yl}-N-(propan-2-yl)heptanamido)methyl]piperidin-4-yl]-2,5-difluorobenzamide] | 60 to 90% | 10 to 100 nM
5 | CCOc1cc(-c2ccc(N3CCC(CN(C(=O)CCCCN4CCC(c5ccc6c(c5)C(=O)N(C5CCC(=O)NC5=O)C6)CC4)C(C)C)(NC(=O)c4cc(F)ccc4F)CC3)nc2)c2c(C#N)cnn2c1 (stereo not shown) [Example 170, N-[1-(5-{3-cyano-6-ethoxypyrazolo[1,5-a]pyridin-4-yl}pyridin-2-yl)-4-[(5-{4-[2-(2,6-dioxopiperidin-3-yl)-3-oxo-2,3-dihydro-1H-isoindol-5-yl]piperidin-1-yl}-N-(propan-2-yl)pentanamido)methyl]piperidin-4-yl]-2,5-difluorobenzamide] | 60 to 90% | 100 to 2000 nM
6 | CCOc1cc(-c2ccc(N3CCC(CN(C(=O)CCCCCCN4CCC(c5ccc6c(c5)C(=O)N(C5CCC(=O)NC5=O)C6)CC4)C(C)C)(NC(=O)c4cc(F)ccc4F)CC3)nc2)c2c(C#N)cnn2c1 (stereo not shown) [Example 171, N-[1-(5-{3-cyano-6-ethoxypyrazolo[1,5-a]pyridin-4-yl}pyridin-2-yl)-4-[(7-{4-[2-(2,6-dioxopiperidin-3-yl)-3-oxo-2,3-dihydro-1H-isoindol-5-yl]piperidin-1-yl}-N-(propan-2-yl)heptanamido)methyl]piperidin-4-yl]-2,5-difluorobenzamide] | > 90% | 2 to 10 nM

The remaining lines, values ahead:

Row | Dmax | DC50 | SMILES
7 | > 90% | 2 to 10 nM | CCOc1cc(-c2ccc(N3CCC(NC(=O)c4cc(F)ccc4F)(C(=O)NCCCCCCN4CCN(c5ccc6c(c5)C(=O)N(C5CCC(=O)NC5=O)C6)CC4)CC3)nc2)c2c(C#N)cnn2c1 (stereo not shown) [Example 160, 1-(5-{3-cyano-6-ethoxypyrazolo[1,5-a]pyridin-4-yl}pyridin-2-yl)-4-(2,5-difluorobenzamido)-N-(6-{4-[2-(2,6-dioxopiperidin-3-yl)-3-oxo-2,3-dihydro-1H-isoindol-5-yl]piperazin-1-yl}hexyl)piperidine-4-carboxamide]
8 | 60 to 90% | < 2 nM | CCOc1cc(-c2ccc(N3CCC(NC(=O)c4cc(F)ccc4F)(C(=O)NCCN4CCC(c5ccc6c(c5)C(=O)N(C5CCC(=O)NC5=O)C6)CC4)CC3)nc2)c2c(C#N)cnn2c1 (stereo not shown) [Example 161, 1-(5-{3-cyano-6-ethoxypyrazolo[1,5-a]pyridin-4-yl}pyridin-2-yl)-4-(2,5-difluorobenzamido)-N-(2-{4-[2-(2,6-dioxopiperidin-3-yl)-3-oxo-2,3-dihydro-1H-isoindol-5-yl]piperidin-1-yl}ethyl)piperidine-4-carboxamide]
9 | 60 to 90% | 2 to 10 nM | CCOc1cc(-c2ccc(N3CCC(NC(=O)c4cc(F)ccc4F)(C(=O)NCCCCCCN4CCC(c5ccc6c(c5)C(=O)N(C5CCC(=O)NC5=O)C6)CC4)CC3)nc2)c2c(C#N)cnn2c1 (stereo not shown) [Example 163, 1-(5-{3-cyano-6-ethoxypyrazolo[1,5-a]pyridin-4-yl}pyridin-2-yl)-4-(2,5-difluorobenzamido)-N-(6-{4-[2-(2,6-dioxopiperidin-3-yl)-3-oxo-2,3-dihydro-1H-isoindol-5-yl]piperidin-1-yl}hexyl)piperidine-4-carboxamide]
10 | > 90% | 2 to 10 nM | CCOc1cc(-c2ccc(N3CCC(CN(C(=O)CCCCN4CCN(c5ccc6c(c5)CN(C5CCC(=O)NC5=O)C6=O)CC4)C(C)C)(NC(=O)c4cc(F)ccc4F)CC3)nc2)c2c(C#N)cnn2c1 (stereo not shown) [Example 164, N-[1-(5-{3-cyano-6-ethoxypyrazolo[1,5-a]pyridin-4-yl}pyridin-2-yl)-4-[(5-{4-[2-(2,6-dioxopiperidin-3-yl)-1-oxo-2,3-dihydro-1H-isoindol-5-yl]piperazin-1-yl}-N-(propan-2-yl)pentanamido)methyl]piperidin-4-yl]-2,5-difluorobenzamide]
11 | > 90% | < 2 nM | CCOc1cc(-c2ccc(N3CCC(CN(C(=O)CCCCCCN4CCN(c5ccc6c(c5)CN(C5CCC(=O)NC5=O)C6=O)CC4)C(C)C)(NC(=O)c4cc(F)ccc4F)CC3)nc2)c2c(C#N)cnn2c1 (stereo not shown) [Example 165, N-[1-(5-{3-cyano-6-ethoxypyrazolo[1,5-a]pyridin-4-yl}pyridin-2-yl)-4-[(7-{4-[2-(2,6-dioxopiperidin-3-yl)-1-oxo-2,3-dihydro-1H-isoindol-5-yl]piperazin-1-yl}-N-(propan-2-yl)heptanamido)methyl]piperidin-4-yl]-2,5-difluorobenzamide]
